# Measured values from ChEMBL document CHEMBL3217615, “Novel 3,5-bis(arylidiene)-4-piperidone based monocarbonyl analogs of curcumin: anticancer activity evaluation and mode of action study” (2014).
# Legend:
# Format in all cases: functional
# [1] = system: T47D; experiment: Growth inhibition of human T47D cells assessed as cell growth at 10^-4 M after 48 hrs by sulforhodamine B assay; details: read-out: Activity
# [2] = Growth inhibition of human HCT15 cells after 48 hrs by sulforhodamine B assay; details: HCT-15, 48 h; for CC50: read-out: LC50 (the source's name)
# [3] = system: SK-MEL-5; experiment: Growth inhibition of human SK-MEL-5 cells assessed as cell growth at 10^-4 M after 48 hrs by sulforhodamine B assay; details: SK-MEL-5, 48 h, read-out: Activity
# [4] = system: K562; experiment: Growth inhibition of human K562 cells after 48 hrs by sulforhodamine B assay; details: K562, 48 h; for CC50: read-out: LC50 (the source's name)
# [5] = system: M14; experiment: Growth inhibition of human M14 cells after 48 hrs by sulforhodamine B assay; details: M14, 48 h; for CC50: read-out: LC50 (the source's name)
# [6] = system: SF-268; experiment: Growth inhibition of human SF268 cells assessed as cell growth at 10^-8 M after 48 hrs by sulforhodamine B assay; details: SF-268, 48 h; for growth at 0.01 µM: read-out: Activity; for TGI: read-out: pTGI (converted)
# [7] = system: SK-OV-3; experiment: Growth inhibition of human SKOV3 cells assessed as cell growth at 10^-7 M after 48 hrs by sulforhodamine B assay; details: SK-OV-3, 48 h, read-out: Activity
# [8] = Growth inhibition of human UACC257 cells assessed as cell growth at 10^-4 M after 48 hrs by sulforhodamine B assay; details: UACC-257, 48 h, read-out: Activity
# [9] = system: ACHN; experiment: Growth inhibition of human ACHN cells assessed as cell growth at 10^-8 M after 48 hrs by sulforhodamine B assay; details: for growth at 0.01 µM: read-out: Activity; for TGI: read-out: pTGI (converted)
# [10] = system: 786-0; experiment: Growth inhibition of human 786-0 cells assessed as cell growth at 10^-4 M after 48 hrs by sulforhodamine B assay; details: 786-0, 48 h, read-out: Activity
# [11] = system: SNB-75; experiment: Growth inhibition of human SNB75 cells after 48 hrs by sulforhodamine B assay; details: SNB-75, 48 h; for CC50: read-out: LC50 (the source's name)
# [12] = system: SK-MEL-28; experiment: Growth inhibition of human SK-MEL-28 cells after 48 hrs by sulforhodamine B assay; details: SK-MEL-28, 48 h; for CC50: read-out: LC50 (the source's name)
# [13] = Growth inhibition of human HCC2998 cells assessed as cell growth at 10^-7 M after 48 hrs by sulforhodamine B assay; details: HCC 2998, 48 h, read-out: Activity
# [14] = system: SW-620; experiment: Growth inhibition of human SW620 cells assessed as cell growth at 10^-6 M after 48 hrs by sulforhodamine B assay; details: SW-620, 48 h, read-out: Activity
# [15] = Growth inhibition of human OVCAR3 cells assessed as cell growth at 10^-8 M after 48 hrs by sulforhodamine B assay; details: OVCAR-3, 48 h; for growth at 0.01 µM: read-out: Activity; for TGI: read-out: pTGI (converted)
# [16] = system: SK-MEL-28; experiment: Growth inhibition of human SK-MEL-28 cells assessed as cell growth at 10^-6 M after 48 hrs by sulforhodamine B assay; details: SK-MEL-28, 48 h, read-out: Activity
# [17] = Growth inhibition of human NCI-ADR-RES cells assessed as cell growth at 10^-7 M after 48 hrs by sulforhodamine B assay; details: read-out: Activity
# [18] = Growth inhibition of human BT549 cells assessed as cell growth at 10^-7 M after 48 hrs by sulforhodamine B assay; details: BT-549, 48 h, read-out: Activity
# [19] = system: DU-145; experiment: Growth inhibition of human DU145 cells assessed as cell growth at 10^-6 M after 48 hrs by sulforhodamine B assay; details: DU-145, 48 h, read-out: Activity
# [20] = system: HT-29; experiment: Growth inhibition of human HT-29 cells assessed as cell growth at 10^-8 M after 48 hrs by sulforhodamine B assay; details: HT-29, 48 h; for growth at 0.01 µM: read-out: Activity; for TGI: read-out: pTGI (converted)
# [21] = Growth inhibition of human RXF393 cells assessed as cell growth at 10^-7 M after 48 hrs by sulforhodamine B assay; details: RXF 393, 48 h, read-out: Activity
# [22] = system: SNB-19; experiment: Growth inhibition of human SNB19 cells assessed as cell growth at 10^-4 M after 48 hrs by sulforhodamine B assay; details: SNB-19, 48 h, read-out: Activity
# [23] = system: SK-MEL-2; experiment: Growth inhibition of human SK-MEL-2 cells assessed as cell growth at 10^-4 M after 48 hrs by sulforhodamine B assay; details: SK-MEL-2, 48 h, read-out: Activity
# [24] = system: U-251; experiment: Growth inhibition of human U251 cells assessed as cell growth at 10^-5 M after 48 hrs by sulforhodamine B assay; details: U-251, 48 h, read-out: Activity
# [25] = system: NCI-H23; experiment: Growth inhibition of human NCI-H23 cells after 48 hrs by sulforhodamine B assay; details: NCI-H23, 48 h; for CC50: read-out: LC50 (the source's name)
# [26] = system: DU-145; experiment: Growth inhibition of human DU145 cells assessed as cell growth at 10^-8 M after 48 hrs by sulforhodamine B assay; details: DU-145, 48 h; for growth at 0.01 µM: read-out: Activity; for TGI: read-out: pTGI (converted)
# [27] = system: SW-620; experiment: Growth inhibition of human SW620 cells assessed as cell growth at 10^-8 M after 48 hrs by sulforhodamine B assay; details: SW-620, 48 h; for growth at 0.01 µM: read-out: Activity; for TGI: read-out: pTGI (converted)
# [28] = system: NCI-H460; experiment: Growth inhibition of human NCI-H460 cells assessed as cell growth at 10^-4 M after 48 hrs by sulforhodamine B assay; details: NCI-H460, 48 h, read-out: Activity
# [29] = Growth inhibition of human HOP92 cells assessed as cell growth at 10^-4 M after 48 hrs by sulforhodamine B assay; details: HOP-92, 48 h, read-out: Activity
# [30] = system: MDA-MB-435; experiment: Growth inhibition of human MDA-MB-435 cells assessed as cell growth at 10^-6 M after 48 hrs by sulforhodamine B assay; details: MDA-MB-435, 48 h, read-out: Activity
# [31] = Growth inhibition of human RXF393 cells assessed as cell growth at 10^-4 M after 48 hrs by sulforhodamine B assay; details: RXF 393, 48 h, read-out: Activity
# [32] = system: HL-60(TB); experiment: Growth inhibition of human HL-60(TB) cells assessed as cell growth at 10^-4 M after 48 hrs by sulforhodamine B assay; details: HL-60, 48 h, read-out: Activity
# [33] = system: M14; experiment: Growth inhibition of human M14 cells assessed as cell growth at 10^-7 M after 48 hrs by sulforhodamine B assay; details: M14, 48 h, read-out: Activity
smiles,measurement,setting,value
Cc1ccc(S(=O)(=O)N2C/C(=C\c3cc(F)cc(F)c3)C(=O)/C(=C/c3cc(F)cc(F)c3)C2)cc1,growth at 100 µM,[1],-61%
same,GI50,[2],250 nM
same,TGI,[2],1300 nM
same,CC50,[2],30700 nM
same,growth at 100 µM,[3],-97%
same,GI50,[4],77.2 nM
same,TGI,[4],1370 nM
same,CC50,[4],> 100000 nM
same,GI50,[5],359 nM
same,TGI,[5],1400 nM
same,CC50,[5],5910 nM
same,GI50,[6],427 nM
same,LC50,[6],14500 nM
same,growth at 0.01 µM,[6],98%
same,TGI,[6],2140 nM
same,growth at 0.1 µM,[7],106%
same,growth at 100 µM,[8],-84%
same,GI50,[9],245 nM
same,LC50,[9],2400 nM
same,growth at 0.01 µM,[9],101%
same,TGI,[9],617 nM
same,growth at 100 µM,[10],-95%
same,GI50,[11],1990 nM
same,TGI,[11],5900 nM
same,CC50,[11],26200 nM
same,GI50,[12],473 nM
same,TGI,[12],1790 nM
same,CC50,[12],4820 nM
same,growth at 0.1 µM,[13],105%
same,growth at 1 µM,[14],-45%
same,GI50,[15],437 nM
same,LC50,[15],4570 nM
same,growth at 0.01 µM,[15],110%
same,TGI,[15],1450 nM
same,growth at 1 µM,[16],29%
same,growth at 0.1 µM,[17],106%
same,growth at 0.1 µM,[18],111%
same,growth at 1 µM,[19],62%
same,GI50,[20],229 nM
same,LC50,[20],3160 nM
same,growth at 0.01 µM,[20],105%
same,TGI,[20],631 nM
same,growth at 0.1 µM,[21],88%
same,growth at 100 µM,[22],-100%
same,growth at 100 µM,[23],-77%
same,growth at 10 µM,[24],-97.9%
same,GI50,[25],1750 nM
same,TGI,[25],4990 nM
same,CC50,[25],26800 nM
same,GI50,[26],1230 nM
same,LC50,[26],7590 nM
same,growth at 0.01 µM,[26],106%
same,TGI,[26],3090 nM
same,GI50,[27],72.4 nM
same,LC50,[27],1450 nM
same,growth at 0.01 µM,[27],99%
same,TGI,[27],302 nM
same,growth at 100 µM,[28],-72%
same,growth at 100 µM,[29],-58%
same,growth at 1 µM,[30],-18%
same,growth at 100 µM,[31],-95%
same,growth at 100 µM,[32],-23%
same,growth at 0.1 µM,[33],98%
O=C1/C(=C/c2ccc(Cl)cc2Cl)CN(S(=O)(=O)c2ccccc2)C/C1=C\c1ccc(Cl)cc1Cl,growth at 100 µM,[1],11%
same,GI50,[2],247 nM
same,TGI,[2],759 nM
same,CC50,[2],> 100000 nM
same,growth at 100 µM,[3],60%
same,GI50,[4],346 nM
same,TGI,[4],> 100000 nM
same,CC50,[4],> 100000 nM
same,GI50,[5],3660 nM
same,TGI,[5],> 100000 nM
same,CC50,[5],> 100000 nM
same,GI50,[6],447 nM
same,LC50,[6],> 100000 nM
same,growth at 0.01 µM,[6],99%
same,TGI,[6],> 100000 nM
same,growth at 0.1 µM,[7],102%
same,growth at 100 µM,[8],42%
same,GI50,[9],871 nM
same,LC50,[9],> 100000 nM
same,growth at 0.01 µM,[9],99%
same,TGI,[9],4570 nM
same,growth at 100 µM,[10],-93%
same,GI50,[11],432 nM
same,TGI,[11],7290 nM
same,CC50,[11],> 100000 nM
same,GI50,[12],4440 nM
same,TGI,[12],> 100000 nM
same,CC50,[12],> 100000 nM
same,growth at 0.1 µM,[13],102%
same,growth at 1 µM,[14],4%
same,GI50,[15],309 nM
same,LC50,[15],5010 nM
same,growth at 0.01 µM,[15],112%
same,TGI,[15],813 nM
same,growth at 1 µM,[16],93%
same,growth at 0.1 µM,[17],109%
same,growth at 0.1 µM,[18],110%
same,growth at 1 µM,[19],18%
same,GI50,[20],295 nM
same,LC50,[20],> 100000 nM
same,growth at 0.01 µM,[20],102%
same,TGI,[20],851 nM
same,growth at 0.1 µM,[21],84%
same,growth at 100 µM,[22],-23%
same,growth at 100 µM,[23],6%
same,growth at 10 µM,[24],-66%
same,GI50,[25],423 nM
same,TGI,[25],2710 nM
same,CC50,[25],> 100000 nM
same,GI50,[26],447 nM
same,LC50,[26],> 100000 nM
same,growth at 0.01 µM,[26],106%
same,TGI,[26],18600 nM
same,GI50,[27],316 nM
same,LC50,[27],> 100000 nM
same,growth at 0.01 µM,[27],97%
same,TGI,[27],2820 nM
same,growth at 100 µM,[28],-61%
same,growth at 100 µM,[29],-20%
same,growth at 1 µM,[30],50%
same,growth at 100 µM,[31],-88%
same,growth at 100 µM,[32],-13%
same,growth at 0.1 µM,[33],104%
